Active and inactive are the calls of the source.
Columns and labels:
[1] = mRNA 3' processing disruption, beta-gal signal increase – luminescence, S. cerevisiae SKY197-pL101, dose response (AID 2525); format: functional, cell-based
[2] = target: Alkaline phosphatase, placental type (Homo sapiens, UniProt P05187); assay: human placental alkaline phosphatase inhibition – biochemical, luminescence, confirmation (AID 1512); format: functional
Aspartyl aminopeptidase = Aspartyl aminopeptidase (Plasmodium falciparum 3D7, UniProt Q8I2J3)
Procathepsin L = Procathepsin L (Homo sapiens, UniProt P07711)
Insulin-degrading enzyme = target: T1, Insulin-degrading enzyme (Homo sapiens, UniProt P14735); assay: Dose Response: Fluorescence polarization-based cell-based high throughput dose response assay for inhibitors of insulin-degrading enzyme (IDE). [Related pubchem assays: 434962 (Primary screen (IDE inhibitors in singlicate)), 449730 (Counterscreen (Cytotoxicity in triplicate)), 435028 (Confirmation (IDE inhibitors in triplicate)), 434984 (Summary …; format: functional
T1 sequence (P14735 whole entry): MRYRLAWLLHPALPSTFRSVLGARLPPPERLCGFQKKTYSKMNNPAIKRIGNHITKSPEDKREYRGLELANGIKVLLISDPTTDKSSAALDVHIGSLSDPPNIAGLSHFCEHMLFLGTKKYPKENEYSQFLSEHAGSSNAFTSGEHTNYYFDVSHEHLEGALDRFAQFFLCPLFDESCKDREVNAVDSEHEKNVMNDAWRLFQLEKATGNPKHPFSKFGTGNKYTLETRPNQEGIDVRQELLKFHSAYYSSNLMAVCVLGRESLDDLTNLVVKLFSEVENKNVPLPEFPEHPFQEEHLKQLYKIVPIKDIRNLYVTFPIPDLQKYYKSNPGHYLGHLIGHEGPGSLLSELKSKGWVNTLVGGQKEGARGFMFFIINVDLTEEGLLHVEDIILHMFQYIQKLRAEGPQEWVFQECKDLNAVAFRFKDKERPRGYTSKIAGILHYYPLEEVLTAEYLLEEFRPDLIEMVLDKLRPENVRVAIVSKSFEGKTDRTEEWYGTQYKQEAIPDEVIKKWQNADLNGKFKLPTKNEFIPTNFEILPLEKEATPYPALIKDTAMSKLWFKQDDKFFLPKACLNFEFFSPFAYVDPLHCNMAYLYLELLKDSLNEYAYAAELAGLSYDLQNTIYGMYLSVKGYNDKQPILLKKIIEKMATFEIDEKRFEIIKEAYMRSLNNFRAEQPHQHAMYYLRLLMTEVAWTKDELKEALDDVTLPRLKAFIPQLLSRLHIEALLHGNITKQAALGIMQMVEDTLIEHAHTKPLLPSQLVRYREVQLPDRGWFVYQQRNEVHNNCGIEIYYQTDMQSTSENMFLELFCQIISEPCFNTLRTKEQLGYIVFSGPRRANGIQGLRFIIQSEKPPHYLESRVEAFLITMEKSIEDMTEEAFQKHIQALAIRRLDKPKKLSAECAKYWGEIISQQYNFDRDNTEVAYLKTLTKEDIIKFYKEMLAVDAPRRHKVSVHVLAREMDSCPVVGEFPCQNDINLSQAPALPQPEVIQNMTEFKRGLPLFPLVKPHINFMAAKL

[3] = Counterscreen for IDE inhibitors: Luminescence-based cell-based high throughput dose response assay to identify compounds that are cytotoxic to HEK cells. [Related pubchem assays: 434962 (Primary screen (IDE inhibitors in singlicate)), 449730 (Counterscreen (Cytotoxicity in triplicate)), 435028 (Confirmation (IDE inhibitors in triplicate)) …; format: functional; conditions: HEK293
[4] = target: Muscarinic acetylcholine receptor M1 (Rattus norvegicus, UniProt P08482); assay: Discovery of novel allosteric modulators of the M1 muscarinic receptor: Agonist NMS binding at M1. [Related pubchem assays: 626 ]
Chain of Muscarinic acetylcholine receptor M1 (P08482 whole entry): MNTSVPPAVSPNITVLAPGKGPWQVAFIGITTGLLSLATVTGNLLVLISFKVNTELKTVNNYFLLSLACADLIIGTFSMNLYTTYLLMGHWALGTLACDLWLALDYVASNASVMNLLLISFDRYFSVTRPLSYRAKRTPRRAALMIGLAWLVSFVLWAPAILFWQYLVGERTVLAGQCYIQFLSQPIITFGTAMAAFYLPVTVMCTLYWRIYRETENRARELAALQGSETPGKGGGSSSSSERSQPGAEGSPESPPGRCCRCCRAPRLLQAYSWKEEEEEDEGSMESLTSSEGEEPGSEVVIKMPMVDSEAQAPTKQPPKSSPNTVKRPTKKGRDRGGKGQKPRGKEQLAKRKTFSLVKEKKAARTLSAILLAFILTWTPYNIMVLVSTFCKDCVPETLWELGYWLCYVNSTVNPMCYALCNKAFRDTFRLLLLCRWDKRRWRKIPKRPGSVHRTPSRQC

[5] = target: Muscarinic acetylcholine receptor M2 (Homo sapiens, UniProt P08172); assay: Discovery of novel allosteric modulators of the M1 muscarinic receptor: Agonist NMS competition at M2. [Related pubchem assays: 626 (Discovery of Novel Allosteric Modulators of the M1 Muscarinic Receptor: Agonist Primary Screen), 1488 (Discovery of novel allosteric modulators of the M1 muscarinic receptor: Agonist Confirmation Assay)]; format: functional
Chain of Muscarinic acetylcholine receptor M2 (P08172 whole entry): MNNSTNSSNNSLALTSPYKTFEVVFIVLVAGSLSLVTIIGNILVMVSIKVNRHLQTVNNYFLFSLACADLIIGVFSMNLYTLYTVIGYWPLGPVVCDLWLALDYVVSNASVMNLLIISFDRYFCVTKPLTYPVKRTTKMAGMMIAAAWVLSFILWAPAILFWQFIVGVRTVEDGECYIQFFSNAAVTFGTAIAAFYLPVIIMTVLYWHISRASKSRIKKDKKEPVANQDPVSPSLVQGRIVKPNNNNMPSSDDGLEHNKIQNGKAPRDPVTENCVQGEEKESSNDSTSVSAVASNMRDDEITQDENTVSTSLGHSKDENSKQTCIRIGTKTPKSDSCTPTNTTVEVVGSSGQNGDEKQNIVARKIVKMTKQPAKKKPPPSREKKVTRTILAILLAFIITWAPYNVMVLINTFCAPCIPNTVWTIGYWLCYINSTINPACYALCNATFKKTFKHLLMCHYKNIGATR

[6] = target: Muscarinic acetylcholine receptor M4 (Rattus norvegicus, UniProt P08485); assay: Discovery of novel allosteric modulators of the M1 muscarinic receptor: Agonist NMS competition at M4. [Related pubchem assays: 626, 1488, 1741 ]; format: functional
Chain of Muscarinic acetylcholine receptor M4 (P08485 whole entry): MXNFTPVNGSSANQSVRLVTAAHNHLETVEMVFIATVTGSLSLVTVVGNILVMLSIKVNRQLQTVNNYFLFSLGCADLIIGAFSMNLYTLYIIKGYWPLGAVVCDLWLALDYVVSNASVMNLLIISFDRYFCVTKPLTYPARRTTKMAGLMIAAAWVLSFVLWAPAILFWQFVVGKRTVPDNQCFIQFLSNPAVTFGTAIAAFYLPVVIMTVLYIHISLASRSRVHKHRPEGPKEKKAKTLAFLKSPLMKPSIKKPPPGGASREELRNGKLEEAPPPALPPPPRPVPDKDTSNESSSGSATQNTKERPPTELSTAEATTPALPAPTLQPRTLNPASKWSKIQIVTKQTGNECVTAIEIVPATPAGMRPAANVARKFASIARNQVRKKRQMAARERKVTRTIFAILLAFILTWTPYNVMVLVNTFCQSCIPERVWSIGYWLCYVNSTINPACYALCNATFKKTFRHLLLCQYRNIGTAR

[7] = target: Muscarinic acetylcholine receptor M5 (Homo sapiens, UniProt P08912); assay: (§1) Discovery of novel allosteric modulators of the M1 muscarinic receptor: Agonist NMS competition at M5. [Related pubchem assays: 1488 (Discovery of novel allosteric modulators of the M1 muscarinic receptor: Agonist Confirmation Assay), 626 (Discovery of Novel Allosteric Modulators of the M1 Muscarinic Receptor: Agonist Primary Screen)]; format: functional
Chain of Muscarinic acetylcholine receptor M5 (P08912 whole entry): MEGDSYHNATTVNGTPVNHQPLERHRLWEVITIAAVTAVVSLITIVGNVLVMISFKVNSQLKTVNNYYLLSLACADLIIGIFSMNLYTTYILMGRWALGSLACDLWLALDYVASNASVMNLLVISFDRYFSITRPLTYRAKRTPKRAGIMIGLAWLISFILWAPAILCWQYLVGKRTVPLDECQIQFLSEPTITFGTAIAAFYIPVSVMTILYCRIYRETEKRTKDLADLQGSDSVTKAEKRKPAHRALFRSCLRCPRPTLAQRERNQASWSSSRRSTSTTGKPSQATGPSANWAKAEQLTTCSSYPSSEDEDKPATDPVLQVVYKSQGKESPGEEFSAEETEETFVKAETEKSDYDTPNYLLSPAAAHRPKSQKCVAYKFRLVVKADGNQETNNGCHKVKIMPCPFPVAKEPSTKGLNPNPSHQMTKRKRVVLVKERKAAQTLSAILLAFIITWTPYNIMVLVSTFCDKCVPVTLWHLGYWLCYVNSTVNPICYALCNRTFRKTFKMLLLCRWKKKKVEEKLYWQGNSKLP

[8] = target: Muscarinic acetylcholine receptor M3 (Homo sapiens, UniProt P20309); assay: as §1, with “M3.” for “M5.”; format: functional
Chain of Muscarinic acetylcholine receptor M3 (P20309 whole entry): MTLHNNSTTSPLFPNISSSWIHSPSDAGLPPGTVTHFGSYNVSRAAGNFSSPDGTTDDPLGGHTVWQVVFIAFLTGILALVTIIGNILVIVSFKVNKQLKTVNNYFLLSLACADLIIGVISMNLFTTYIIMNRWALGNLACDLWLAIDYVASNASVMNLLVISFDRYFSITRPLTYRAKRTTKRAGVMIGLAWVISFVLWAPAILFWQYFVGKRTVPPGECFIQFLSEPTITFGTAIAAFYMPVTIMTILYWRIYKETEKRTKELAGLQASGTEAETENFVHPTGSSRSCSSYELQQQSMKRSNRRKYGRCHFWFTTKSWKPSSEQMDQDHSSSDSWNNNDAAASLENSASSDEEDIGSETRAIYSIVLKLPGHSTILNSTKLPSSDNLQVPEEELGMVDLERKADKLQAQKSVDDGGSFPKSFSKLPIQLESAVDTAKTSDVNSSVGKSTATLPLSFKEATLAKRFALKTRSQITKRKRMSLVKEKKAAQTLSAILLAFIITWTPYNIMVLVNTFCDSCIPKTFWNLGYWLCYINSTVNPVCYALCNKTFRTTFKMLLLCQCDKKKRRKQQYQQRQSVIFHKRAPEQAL

[9] = target: T2, Short transient receptor potential channel 4 (Mus musculus, UniProt Q9QUQ5); assay: block of DAMGO-driven TRPC4 calcium entry – cell-based, HEK293 TRPC4/mu-opioid, Fluo-4 calcium, dose response (AID 434942); format: functional;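 further: potency of inhibitors blocking the TRPC4 calcium response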
T2 sequence (Q9QUQ5 whole entry): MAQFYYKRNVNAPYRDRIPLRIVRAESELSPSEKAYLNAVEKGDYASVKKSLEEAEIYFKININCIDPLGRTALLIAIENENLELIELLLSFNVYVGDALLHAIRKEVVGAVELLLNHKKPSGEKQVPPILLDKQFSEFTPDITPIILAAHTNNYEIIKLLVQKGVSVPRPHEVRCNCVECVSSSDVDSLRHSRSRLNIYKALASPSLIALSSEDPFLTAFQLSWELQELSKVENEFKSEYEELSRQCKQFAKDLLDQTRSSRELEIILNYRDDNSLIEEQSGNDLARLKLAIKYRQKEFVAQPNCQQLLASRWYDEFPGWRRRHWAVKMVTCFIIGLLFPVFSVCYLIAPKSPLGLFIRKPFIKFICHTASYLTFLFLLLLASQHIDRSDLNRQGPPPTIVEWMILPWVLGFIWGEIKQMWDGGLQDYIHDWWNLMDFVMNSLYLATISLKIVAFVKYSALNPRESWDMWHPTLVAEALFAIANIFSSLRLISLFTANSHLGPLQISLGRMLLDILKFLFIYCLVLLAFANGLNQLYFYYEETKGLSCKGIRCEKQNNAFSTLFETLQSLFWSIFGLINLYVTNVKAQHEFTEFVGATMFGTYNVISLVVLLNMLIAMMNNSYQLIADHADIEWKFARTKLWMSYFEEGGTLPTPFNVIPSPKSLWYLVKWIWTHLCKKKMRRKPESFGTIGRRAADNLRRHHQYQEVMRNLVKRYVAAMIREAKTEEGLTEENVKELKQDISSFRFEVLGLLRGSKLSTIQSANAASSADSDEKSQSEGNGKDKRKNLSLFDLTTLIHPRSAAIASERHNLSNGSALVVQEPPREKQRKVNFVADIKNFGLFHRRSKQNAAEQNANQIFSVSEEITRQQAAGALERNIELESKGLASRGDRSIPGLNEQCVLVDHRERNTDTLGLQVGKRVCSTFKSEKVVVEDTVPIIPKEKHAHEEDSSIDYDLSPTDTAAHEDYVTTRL

[10] = target: G-protein coupled receptor 35 (Homo sapiens, UniProt Q9HC97); assay: inhibition of zaprinast-stimulated GPR35 beta-arrestin translocation – imaging, U2OS, beta-arrestin-GFP, zaprinast agonist, primary screen (AID 2058); format: functional;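 further: antagonist potency meaning inhibition of agonist-induced arrestin redistribution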
Chain of G-protein coupled receptor 35 (Q9HC97 whole entry): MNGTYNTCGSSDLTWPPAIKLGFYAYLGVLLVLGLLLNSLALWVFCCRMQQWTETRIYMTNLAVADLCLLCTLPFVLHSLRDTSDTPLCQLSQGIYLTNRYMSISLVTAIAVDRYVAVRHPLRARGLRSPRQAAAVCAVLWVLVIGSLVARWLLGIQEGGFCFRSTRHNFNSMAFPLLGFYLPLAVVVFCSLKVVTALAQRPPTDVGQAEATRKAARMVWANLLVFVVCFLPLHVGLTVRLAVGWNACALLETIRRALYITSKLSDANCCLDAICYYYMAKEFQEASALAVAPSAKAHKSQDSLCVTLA

[11] = target: Heat shock cognate 71 kDa protein (Homo sapiens, UniProt P11142); assay: In Vitro Hsc70 Dose Response Fluorescence Polarization Assay. [Related pubchem assays: 1072 ]
Chain of Heat shock cognate 71 kDa protein (P11142 whole entry): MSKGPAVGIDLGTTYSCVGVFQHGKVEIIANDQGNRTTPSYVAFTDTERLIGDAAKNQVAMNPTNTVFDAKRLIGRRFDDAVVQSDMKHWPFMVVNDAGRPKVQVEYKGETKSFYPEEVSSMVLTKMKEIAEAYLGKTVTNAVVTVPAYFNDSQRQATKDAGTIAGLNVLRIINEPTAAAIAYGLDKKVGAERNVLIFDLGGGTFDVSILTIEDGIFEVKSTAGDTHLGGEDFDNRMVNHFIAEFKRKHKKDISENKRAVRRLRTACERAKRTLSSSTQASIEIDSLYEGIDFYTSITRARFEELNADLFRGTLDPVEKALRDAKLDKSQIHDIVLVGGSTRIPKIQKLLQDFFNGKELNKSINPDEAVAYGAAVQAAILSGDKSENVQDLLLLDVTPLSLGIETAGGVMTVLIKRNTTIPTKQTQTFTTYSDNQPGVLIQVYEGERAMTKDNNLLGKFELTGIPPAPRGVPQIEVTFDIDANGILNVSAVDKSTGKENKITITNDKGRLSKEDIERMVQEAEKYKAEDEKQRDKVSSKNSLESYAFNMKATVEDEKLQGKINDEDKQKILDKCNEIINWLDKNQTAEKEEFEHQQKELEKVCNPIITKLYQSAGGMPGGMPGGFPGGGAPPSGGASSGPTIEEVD

[12] = target: Glyceraldehyde-3-phosphate dehydrogenase (Homo sapiens, UniProt P04406)
Chain of Glyceraldehyde-3-phosphate dehydrogenase (P04406 whole entry): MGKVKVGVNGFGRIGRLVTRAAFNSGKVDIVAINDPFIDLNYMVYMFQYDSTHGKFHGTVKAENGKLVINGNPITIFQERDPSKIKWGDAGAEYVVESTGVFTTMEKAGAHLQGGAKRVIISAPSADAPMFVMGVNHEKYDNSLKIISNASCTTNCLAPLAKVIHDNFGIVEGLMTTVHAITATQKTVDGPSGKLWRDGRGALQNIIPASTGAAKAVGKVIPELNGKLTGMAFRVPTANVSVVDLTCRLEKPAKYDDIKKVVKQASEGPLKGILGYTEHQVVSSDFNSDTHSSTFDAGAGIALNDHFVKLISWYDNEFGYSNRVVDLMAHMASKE

Protein Rev = Protein Rev (Human immunodeficiency virus type 1 group M subtype B (isolate WMJ22)(HIV-1), UniProt P05866); assay: inhibitors of Rev protein–RRE RNA complex – biochemical, protein-RNA interaction, dose response (AID 842); parameters: species or system Human immunodeficiency virus 1
Chain of Protein Rev (P05866 whole entry): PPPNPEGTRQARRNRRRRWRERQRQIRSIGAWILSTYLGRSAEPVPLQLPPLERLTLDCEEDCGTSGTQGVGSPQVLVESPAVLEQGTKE

Streptococcus [13] = assay: GAS UMAA2166 growth inhibition – luminescence, BacTiterGlo, counter-screen for streptokinase expression inhibitor project, dose response (AID 1915); format: functional, organism-based;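 further: potency for reduction of bacterial viability or growth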
Streptokinase A = target: T3, Streptokinase A (Streptococcus pyogenes serotype M1, UniProt P10520); assay: viability-normalized secreted streptokinase activity reduction – plasminogen activation absorbance, OD405, dose response (AID 1914); format: functional, Streptococcus pyogenes M1 GAS;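 further: secreted streptokinase activity via plasminogen activation per viability signal from cell pellet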
T3 sequence (P10520 whole entry): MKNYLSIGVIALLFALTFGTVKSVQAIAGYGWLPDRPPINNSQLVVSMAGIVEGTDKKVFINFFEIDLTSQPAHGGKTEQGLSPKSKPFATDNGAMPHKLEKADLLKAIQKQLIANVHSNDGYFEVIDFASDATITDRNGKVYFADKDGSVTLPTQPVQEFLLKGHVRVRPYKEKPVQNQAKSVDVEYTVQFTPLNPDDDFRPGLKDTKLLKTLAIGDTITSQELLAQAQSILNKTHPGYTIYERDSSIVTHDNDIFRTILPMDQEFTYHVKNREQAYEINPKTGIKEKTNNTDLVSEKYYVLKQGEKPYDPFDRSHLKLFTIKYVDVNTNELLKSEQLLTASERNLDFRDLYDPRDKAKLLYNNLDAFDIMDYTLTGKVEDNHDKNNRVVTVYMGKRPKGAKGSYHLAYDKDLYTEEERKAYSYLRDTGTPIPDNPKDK

[14] = tested on: Streptococcus sp. 'group A'; assay: Streptococcus pyogenes SK(-)GAS viability under kanamycin – luminescence, BacTiterGlo, confirmation, counter-screen for streptokinase expression inhibitor project, dose response (AID 1900); format: functional, organism-based
Streptococcus [15] = assay: Luminescence Microorganism-Based Dose Response Follow up to Identify Compounds Cytotoxic to Streptococcus. [Related pubchem assays: 1677 (Project Summary), 1915, 1914, 1902 (Retest at Dose), 1900 (Counter Screen), 1662 (Primary HTS)]; format: functional, organism-based
[16] = target: Melanin-concentrating hormone receptor 1 (Homo sapiens, UniProt Q99705); assay: Fluorescence-based counterscreen for antagonists of the G-protein coupled receptor 7 (GPR7): cell-based high throughput dose response assay to identify antagonists of the melanin-concentrating hormone receptor 1 (MCHR1).; format: functional
Chain of Melanin-concentrating hormone receptor 1 (Q99705 whole entry): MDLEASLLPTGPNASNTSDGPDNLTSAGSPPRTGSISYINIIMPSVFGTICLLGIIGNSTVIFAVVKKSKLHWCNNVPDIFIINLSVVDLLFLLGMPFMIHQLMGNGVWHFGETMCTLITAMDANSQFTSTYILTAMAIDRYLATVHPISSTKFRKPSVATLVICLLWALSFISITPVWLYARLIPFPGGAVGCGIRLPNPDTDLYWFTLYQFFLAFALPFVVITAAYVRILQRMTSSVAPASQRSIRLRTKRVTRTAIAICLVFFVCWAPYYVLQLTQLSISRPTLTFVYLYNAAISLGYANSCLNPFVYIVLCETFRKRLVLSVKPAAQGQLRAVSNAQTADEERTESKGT

[17] = target: Voltage-dependent T-type calcium channel subunit alpha-1H (Homo sapiens, UniProt O95180); format: functional;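 further: channel activity triggered by adding a high calcium stimulation buffer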

Chain of Alkaline phosphatase, placental type (P05187 whole entry): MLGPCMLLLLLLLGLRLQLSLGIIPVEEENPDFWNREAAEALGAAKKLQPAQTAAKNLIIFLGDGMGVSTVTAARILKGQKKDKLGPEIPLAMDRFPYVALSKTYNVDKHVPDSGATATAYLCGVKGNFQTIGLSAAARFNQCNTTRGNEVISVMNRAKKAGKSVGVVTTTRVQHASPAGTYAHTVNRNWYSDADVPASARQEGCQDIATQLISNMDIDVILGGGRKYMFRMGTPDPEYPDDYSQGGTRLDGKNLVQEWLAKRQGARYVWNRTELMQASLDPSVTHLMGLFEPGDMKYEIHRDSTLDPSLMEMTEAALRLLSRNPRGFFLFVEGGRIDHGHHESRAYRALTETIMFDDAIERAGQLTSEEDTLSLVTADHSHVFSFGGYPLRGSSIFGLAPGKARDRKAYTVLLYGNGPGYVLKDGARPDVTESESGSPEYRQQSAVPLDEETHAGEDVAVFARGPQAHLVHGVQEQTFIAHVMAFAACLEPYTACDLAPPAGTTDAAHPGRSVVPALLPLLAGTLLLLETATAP

With O=C(O)CN1C(=O)/C(=C\c2ccc(N3CCCCC3)o2)SC1=S the EC50 [1] was 12.4 µM (active).
For O=C(NCc1cccnc1)NC1(C(F)(F)F)Oc2ccc(Cl)cc2O1 (configuration not stated), the IC50 [2] was 8.54 µM (active), the IC50 (Aspartyl aminopeptidase) was 1.58 µM (active) and the IC50 (Procathepsin L) was > 59.6 µM (not active).
For Cn1c2ccccc2c2cc(/C=C(\NC(=O)c3ccccc3)C(=O)NCC(=O)O)ccc21, the IC50 (Insulin-degrading enzyme) was 42.5 µM (not active) and the IC50 [3] was > 55.7 µM (not active).
In the case of CCOC(=O)N1CCC(NCCNC(=O)c2ccccc2)CC1, the EC50 [4] is reported as 36.5 µM (inconclusive), the EC50 [5] is reported as 28 µM (inconclusive) and the EC50 [6] is reported as 21.4 µM (inconclusive). The EC50 [7] was 64.6 µM (inconclusive) and the EC50 [8] was 12.4 µM (inconclusive).
For COc1ccc2nc(C)cc(NCc3ccc(F)cc3)c2c1, the EC50 [9] was 5.96 µM (active) and the IC50 [10] was 2.6 µM (active).
For Nc1ncnc2c1ncn2[C@@H]1O[C@H](COP(=O)(O)OP(=O)(O)O)[C@@H](O)[C@H]1O [ADENOSINE DIPHOSPHATE], the IC50 [11] was 0.28 µM (active) and the IC50 [12] was > 5 µM (inconclusive).
With CC1=NOC(=O)/C1=C/c1ccc(N(C)C)cc1 the IC50 (Protein Rev) was 2.86 µM (active).
In the case of COCc1cc(Sc2c(Cl)cccc2Cl)nc(-c2ccccc2)n1, the EC50 (Streptococcus [13]) is reported as > 150 µM (not active), the EC50 (Streptokinase A) is reported as 9.31 µM (active) and the EC50 [14] is reported as 8.22 µM (active). For the same molecule, the EC50 (Streptococcus [15]) was > 500 µM (not active).
For Cc1ccccc1CN1C[C@@H]2C[C@@H](c3c[nH]nc3-c3ccc(F)cc3)N3CCC[C@@]23C1=O, the IC50 [16] was 25.4 µM (not active).
For C=CCOc1c(Br)cc(CNc2nccs2)cc1OC, the EC50 [17] was 6.12 µM (active).
